The assay concerns SK-CO-1 cell line. In words: Cell growth inhibition on SK-CO-1 cell line (SRB assay). The class given is cell-based. Conditions: cultured with compound for 3 days, SRB colorimetric test. As to the method: SK-CO-1 cell line purchased from the American Type Culture Collection (ATCC, USA) was cultured at […] with an EMEM medium (10% FBS, 1% penicillin/streptomycin) under the presence of 5% CO2. The cultured SK-CO-1 cell line was prepared in 5×10^4/100 μl, placed in a 96 well-plate, and cultured for one day. After that, the test compound was stepwise diluted in a ratio of 1/10 from 10 μM to 0.1 nM in the same EMEM medium, and then cultured for 3 days. In order to measure viability of the cell, a sulforhodamine B colorimetric (SRB, sigma Cat. S1402) test method was used. After discarding the medium, 0.1 ml of 10% trichloroacetic acid (TCA, Sigma Cat. T0699) was introduced to each well, and the cell line was fixed for 30 minutes to 1 hour, then washed with distilled water, and exposed in the air to dry the plate. After that, 100 μl of 0.4% SRB solution was introduced to each well, and the cell line was stained for 30 minutes at room temperature, and the plate was washed with distilled water and 1% acetic acid, and then dried in the air. 150 μl of […] trizma base solution was introduced to each well, and after dissolving the solid SRB therein, absorbance was measured at 540 nm using a microplate-reader. The growth inhibition value (GI50) of the cell line was calculated using a GraphPad Prism software.
(The SRB assay estimates cell density from bound dye.)

As a reminder, the GI50 is the concentration that inhibits growth by half.

As for “1-(2-(((1^5Z,5Z)-2^5-fluoro-3-aza-1(3,6)-imidazo[1,2-b]pyridazina-2(4,2)pyrimidina-4(1,3)-benzenacyclohexapan-5-en-4^5-yl)oxy)ethyl)piperidin-4-ol [Example 1]”, the GI50 was 21 nM.
